From ChEMBL document CHEMBL1157782, “Anti-microtubule 'plinabulin' chemical probe KPU-244-B3 labeled both alpha- and beta-tubulin” (Bioorg Med Chem, 2010)
The source made the active and inactive calls. No cut-off for these calls is given here. Square brackets hold non-standard residues; d marks the D form. Peptide text beside a SMILES is read from it. * marks the point of attachment. Biotin = O=C1N[C@H]2[C@H](CS[C@H]2CCCCC(=O)*)N1; Ahx = NCCCCCC(=O)O

Tests used:
HT-29 = experiment: Cytotoxicity against human HT-29 cells; assay type: functional, cell-based
Tubulin = Tubulin (Sus scrofa, UniProt P02554+P02550); experiment: Binding affinity to pig tubulin after 1 hr by fluorescence quenching analysis; assay type: protein assay
Tubulin (Sus scrofa) [1] = biological target: T1, Tubulin (Sus scrofa) (UniProt P02554+P02550); experiment: Binding affinity to pig tubulin at 2 uM treated for 30 mins followed by photo-irradiation at 365 nm for 30 secs measured after 1 hr by Western blot analysis; assay type: protein assay
T1 sequence (P02550 whole entry, looked up): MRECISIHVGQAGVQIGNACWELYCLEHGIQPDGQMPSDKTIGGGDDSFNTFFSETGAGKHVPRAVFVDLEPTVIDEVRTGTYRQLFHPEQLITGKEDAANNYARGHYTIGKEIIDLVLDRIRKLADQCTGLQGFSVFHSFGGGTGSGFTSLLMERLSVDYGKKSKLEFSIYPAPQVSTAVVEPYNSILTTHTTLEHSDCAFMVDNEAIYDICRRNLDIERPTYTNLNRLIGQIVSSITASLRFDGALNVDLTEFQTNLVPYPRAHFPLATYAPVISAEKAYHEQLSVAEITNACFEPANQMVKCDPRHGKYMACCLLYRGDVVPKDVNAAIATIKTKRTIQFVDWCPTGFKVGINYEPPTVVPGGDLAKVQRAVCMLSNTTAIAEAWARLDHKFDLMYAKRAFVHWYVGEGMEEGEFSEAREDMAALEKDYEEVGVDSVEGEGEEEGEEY
T1 sequence (P02554 whole entry, looked up): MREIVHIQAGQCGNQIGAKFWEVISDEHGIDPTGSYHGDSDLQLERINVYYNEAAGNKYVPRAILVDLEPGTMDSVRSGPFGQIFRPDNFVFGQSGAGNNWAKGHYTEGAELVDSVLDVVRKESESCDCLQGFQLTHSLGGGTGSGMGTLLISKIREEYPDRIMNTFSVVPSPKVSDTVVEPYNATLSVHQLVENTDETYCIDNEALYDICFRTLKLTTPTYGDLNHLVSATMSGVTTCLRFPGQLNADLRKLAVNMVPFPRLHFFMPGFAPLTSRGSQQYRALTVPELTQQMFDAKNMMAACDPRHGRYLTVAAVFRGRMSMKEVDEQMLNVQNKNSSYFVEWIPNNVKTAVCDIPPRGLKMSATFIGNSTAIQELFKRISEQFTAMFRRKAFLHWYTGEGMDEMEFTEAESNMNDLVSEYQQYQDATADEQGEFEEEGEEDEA

Tubulin (Sus scrofa) [2] = biological target: T1, Tubulin (Sus scrofa); experiment: Binding affinity to pig tubulin assessed as irradiation-time-dependent labeling at 2 uM treated for 30 mins followed by photo-irradiation at 365 nm by CBB staining-based SDS-PAGE; assay type: protein assay; conditions: TDE = time-dependent effect
HT-1080 [3] = experiment: Binding affinity to alpha-tubulin in human HT1080 cells after overnight incubation by SDS-PAGE; assay type: cell-based
Tubulin (Sus scrofa) [4] = biological target: T1, Tubulin (Sus scrofa); experiment: Binding affinity to pig tubulin at 2 uM treated for 30 mins followed by photo-irradiation at 365 nm for 30 secs measured after 1 hr by Western blot analysis in presence of 100 equivalents of colchicine; assay type: protein assay
Sus scrofa [5] = species: Sus scrofa; experiment: Binding affinity to pig alpha-tubulin at 2 uM treated for 30 mins followed by photo-irradiation at 365 nm for 30 secs measured after 1 hr by Western blot analysis
Sus scrofa [6] = species: Sus scrofa; experiment: Binding affinity to pig beta-tubulin at 2 uM treated for 30 mins followed by photo-irradiation at 365 nm for 30 secs measured after 1 hr by Western blot analysis
Tubulin (Sus scrofa) [7] = biological target: T1, Tubulin (Sus scrofa); experiment: Binding affinity to pig tubulin at 2 uM treated for 30 mins followed by photo-irradiation at 365 nm for 30 secs measured after 1 hr by Western blot analysis in presence of increasing concentration of plinabulin; assay type: protein assay
Tubulin (Sus scrofa) [8] = biological target: T1, Tubulin (Sus scrofa); experiment: Binding affinity to pig tubulin at 2 uM treated for 30 mins followed by photo-irradiation at 365 nm for 30 secs measured after 1 hr by Western blot analysis in presence of 5-100 equivalents of biotin; assay type: protein assay
Tubulin (Sus scrofa) [9] = biological target: T1, Tubulin (Sus scrofa); experiment: Binding affinity to pig tubulin at 2 uM treated for 30 mins followed by photo-irradiation at 365 nm for 30 secs measured after 1 hr by CBB staining-based SDS-PAGE; assay type: protein assay
HT-1080 [10] = experiment: Binding affinity to beta-tubulin in human HT1080 cells after overnight incubation by SDS-PAGE; assay type: cell-based

Kd (Tubulin) | Structure (SMILES) | IC50 (HT-29) | Activity (HT-1080 [3]) | Activity (HT-1080 [10]) | other results
 | CC(C)(C)c1ocnc1/C=c1\[nH]c(=O)/c(=C/c2cccc(C(=O)c3ccccc3)c2)[nH]c1=O | 4 nM |  |  | 
9740 nM | CC(C)(C)c1ocnc1/C=c1\[nH]c(=O)/c(=C/c2cccc(C(=O)c3ccc(CNC(=O)CCCCCNC(=O)CCCCCNC(=O)CCCC[C@@H]4SC[C@@H]5NC(=O)N[C@@H]54)cc3)c2)[nH]c1=O (stereo in doubt) |  |  |  | Activity (Tubulin (Sus scrofa) [1]): Active
25170 nM | CC(C)(C)c1ocnc1/C=c1\[nH]c(=O)/c(=C/c2cccc(C(=O)c3ccc(CNC(=O)CCCCCNC(=O)CCCCCNC(=O)CCCCCNC(=O)CCCCCNC(=O)[C@H](CCCCN)NC(=O)[C@H](CCCCN)NC(=O)CCCCCNC(=O)CCCCCNC(=O)CCCC[C@@H]4SC[C@@H]5NC(=O)N[C@@H]54)cc3)c2)[nH]c1=O (stereo in doubt) |  | Active | Active | Activity (Tubulin (Sus scrofa) [2]): tde; Activity (Tubulin (Sus scrofa) [4]): inactive; Activity (Sus scrofa [5]): Active; Activity (Sus scrofa [6]): Active; Activity (Tubulin (Sus scrofa) [7]): inactive; Activity (Tubulin (Sus scrofa) [8]): Active; Activity (Tubulin (Sus scrofa) [9]): Active
 | NCCCC[C@H](NC(=O)CCCCCNC(=O)CCCCCNC(=O)CCCC[C@@H]1SC[C@@H]2NC(=O)N[C@@H]21)C(=O)N[C@@H](CCCCN)C(=O)NCCCCCC(=O)NCCCCCC(=O)NCCCCCC(=O)NCCCCCC(=O)O ({Biotin-Ahx-Ahx}-KK[Ahx][Ahx][Ahx][Ahx]-OH) |  | inactive | inactive | 

Structure (SMILES) | Kd (Tubulin) | IC50 (HT-29) | Activity (HT-1080 [3]) | Activity (HT-1080 [10]) | other results
CC(C)(C)c1[nH]cnc1/C=c1\[nH]c(=O)/c(=C/c2ccccc2)[nH]c1=O [PLINABULIN] | 1060 nM | 15 nM |  |  | 
